{"source": "paper PMC11079024", "about": "“Identification of a family of species-selective complex I inhibitors as potential anthelmintics” (Nature Communications, 2024)", "molecular_target": "C. briggsae complex I (Caenorhabditis briggsae, UniProt A8X476+A8XFG2+Q8HEC4)", "sequence (A8X476 31-482)": "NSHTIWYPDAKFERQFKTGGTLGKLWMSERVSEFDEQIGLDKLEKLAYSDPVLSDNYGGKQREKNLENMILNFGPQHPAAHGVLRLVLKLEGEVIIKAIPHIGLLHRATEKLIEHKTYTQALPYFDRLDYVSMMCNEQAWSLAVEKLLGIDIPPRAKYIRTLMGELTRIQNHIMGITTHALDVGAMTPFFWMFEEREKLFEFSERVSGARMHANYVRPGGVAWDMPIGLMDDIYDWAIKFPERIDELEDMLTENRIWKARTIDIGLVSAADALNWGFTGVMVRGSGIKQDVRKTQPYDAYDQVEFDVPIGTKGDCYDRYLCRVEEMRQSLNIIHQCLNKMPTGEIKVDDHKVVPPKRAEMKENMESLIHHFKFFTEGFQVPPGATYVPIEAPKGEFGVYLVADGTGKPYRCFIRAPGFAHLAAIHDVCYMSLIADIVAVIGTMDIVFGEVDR", "sequence (A8XFG2 17-199)": "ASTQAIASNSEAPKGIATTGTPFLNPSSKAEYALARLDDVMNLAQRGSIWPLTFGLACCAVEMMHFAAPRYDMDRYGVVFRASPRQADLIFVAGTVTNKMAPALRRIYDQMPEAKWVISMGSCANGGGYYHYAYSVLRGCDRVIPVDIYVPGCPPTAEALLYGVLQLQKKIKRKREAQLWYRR", "sequence (Q8HEC4 whole entry)": "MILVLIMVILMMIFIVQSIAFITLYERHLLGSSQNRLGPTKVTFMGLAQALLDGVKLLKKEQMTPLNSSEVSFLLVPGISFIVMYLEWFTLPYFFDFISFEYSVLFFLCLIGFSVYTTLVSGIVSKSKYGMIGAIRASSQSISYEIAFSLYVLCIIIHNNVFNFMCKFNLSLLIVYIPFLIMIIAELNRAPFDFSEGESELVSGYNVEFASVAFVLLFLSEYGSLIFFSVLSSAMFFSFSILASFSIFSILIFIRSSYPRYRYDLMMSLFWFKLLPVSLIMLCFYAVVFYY", "test": "In vitro complex I activity assay, C. briggsae mitochondria", "type": "biochemical", "protocol": "Mitochondria were isolated from the following free-living nematode strains: C. elegans—N2, CB3474, ECA882, ECA917, ECA1075, ECA1080; C. briggsae—AF16; P. pacificus—PS312; and P. hermaphrodita—B178. With the exception of the P. hermaphrodita strain B178, adult worms of each strain were grown in bulk through liquid culture to obtain mitochondria in sufficient quantities. Due to poor growth in liquid media, mixed stage populations of P. hermaphrodita were washed off and collected from NGM plates seeded with OP50. The isolation of mitochondria from all free-living nematode strains followed the protocol previously outlined in Burns et al.[24]. In brief, a 1 L saturated culture of E. coli HB101 was concentrated 20-fold in 50 mL complete S-medium. ~500,000 L1 worms synchronized from an embryo preparation performed the day prior were added to the S-media/HB101 suspension and grown to adulthood over the course of 3.5 days at 20 °C with shaking at 165 rpm. Following growth, worms were collected in 10 ×15 mL conical tubes and washed 7 times in M9 buffer. Worm suspensions were then combined into a single 15 mL conical tube and diluted to a final volume of 15 mL with M9 buffer. 1 mL aliquots of worm suspension were then distributed to 15 × 1.5 mL screw-cap microcentrifuge tubes and were pelleted at 500 g for 1 min. Excess M9 was aspirated without disturbing the worm pellet. 600 μL ice-cold isolate buffer A (250 mM sucrose, 10 mM Tris (pH 7.5), 1 mM EDTA, 1 mM PMSF (freshly prepared)) and 300 μL cold glass beads were then added to each tube. Tubes were incubated on ice for 10 min, and the worms were then lysed by bead beating (6 x 30 s, with 1 min cooling intervals). Tubes containing worm lysate were centrifuged at 1,000 g for 10 min at 4 °C and the supernatant was transferred to 15 new microcentrifuge tubes on ice. The tubes were centrifuged a second time at 1,000 g for 10 min at 4 °C and the supernatant was once again transferred to 15 new microcentrifuge tubes on ice. These tubes were then centrifuged at 16,000 g for 10 min at 4 °C. The resulting mitochondrial pellet was washed twice by re-suspension in 300 μL of ice-cold isolate buffer B (250 mM sucrose, 10 mM Tris (pH 7.5), 1 mM EDTA). Following the final wash, isolation buffer was aspirated from each tube and the pellets were flash-frozen in ethanol/dry ice and stored at −80 °C until needed.\nThe enzymatic activities of individual ETC complexes (I-IV) were assessed spectrophotometrically in isolated mitochondria using a Varioskan LUX Multimode plate reader (ThermoFisher Scientific). Mitochondrial pellets previously isolated were thawed on ice and resuspended in ice-cold isolation buffer (250 mM sucrose, 10 mM Tris (pH 7.5), 1 mM EDTA). The BCA assay (Walker, 1994) was used to quantify the protein concentration of mitochondria suspensions; solutions were diluted to a concentration of 0.2 mg/mL for use in all assays. For the complex I assay, mitochondria pellets were freeze-thawed on ice three times to increase enzyme accessibility. […] 20 μL mitochondria suspension was then added/mixed with a pipette to initiate the reaction. Immediately following the addition of mitochondria, absorbance was measured (complex I and II: 600 nm; complex III and IV: 550 nm) in 30 s intervals over 15 min. Enzymatic activity was determined in each reaction by plotting absorbance versus time and calculating the slope of the curve during the initial linear phase of the reaction. […] Percent activity of each complex was calculated by dividing the enzyme-specific activity of each well by the enzyme-specific activity of the corresponding solvent controls.\nChemical solutions were prepared in complex I assay buffer composed of 25 mM KPi buffer (pH 7.5), 3 mg/mL bovine serum albumin (BSA), 80 μM NADH, 60 μM decylubiquinone, 160 μM DCIP, 2 μM antimycin A and 2 mM KCN.\nFor preliminary screens of hit compounds, compounds were screened at 100 μM; data are the average of at least three biological replicates.", "note": "Several values for one entry are separate records, joined by “and”; a condition that tells them apart may be missing. Equal entries are not always repeated. Where two headings read alike, the source gives them in different places.", "data": [{"smiles": "Cc1nc2ccccc2n1Cc1ccc(Cl)cc1", "note": "[STK697993]", "values": [{"measurement": "remaining activity at 0.0001 µM", "setting": "C. briggsae mitochondria, 0.0001 µM, Mean, read-out: in vitro complex I activity relative to solvent control", "value": 84.5, "unit": "%"}, {"measurement": "in vitro complex I activity relative to solvent control", "setting": "C. briggsae mitochondria, 0.0001 µM, single replicate", "value": "91.655% and 73.328%"}, {"measurement": "remaining activity at 0.0001 µM", "setting": "C. briggsae mitochondria, 0.0001 µM, single replicate, read-out: in vitro complex I activity relative to solvent control", "value": 88.5, "unit": "%"}, {"measurement": "remaining activity at 0.0005 µM", "setting": "C. briggsae mitochondria, 0.0005 µM, Mean, read-out: in vitro complex I activity relative to solvent control", "value": 92.6, "unit": "%"}, {"measurement": "in vitro complex I activity relative to solvent control", "setting": "C. briggsae mitochondria, 0.0005 µM, single replicate", "value": "92.151% and 96.046%"}, {"measurement": "remaining activity at 0.0005 µM", "setting": "C. briggsae mitochondria, 0.0005 µM, single replicate, read-out: in vitro complex I activity relative to solvent control", "value": 89.6, "unit": "%"}, {"measurement": "remaining activity at 0.001 µM", "setting": "C. briggsae mitochondria, 0.001 µM, Mean, read-out: in vitro complex I activity relative to solvent control", "value": 98.3, "unit": "%"}, {"measurement": "in vitro complex I activity relative to solvent control", "setting": "C. briggsae mitochondria, 0.001 µM, single replicate", "value": "98.678% and 90.340%"}, {"measurement": "remaining activity at 0.001 µM", "setting": "C. briggsae mitochondria, 0.001 µM, single replicate, read-out: in vitro complex I activity relative to solvent control", "value": 106, "unit": "%"}, {"measurement": "remaining activity at 0.0025 µM", "setting": "C. briggsae mitochondria, 0.0025 µM, Mean, read-out: in vitro complex I activity relative to solvent control", "value": 104, "unit": "%"}, {"measurement": "in vitro complex I activity relative to solvent control", "setting": "C. briggsae mitochondria, 0.0025 µM, single replicate", "value": "101.880% and 103.212%"}, {"measurement": "remaining activity at 0.0025 µM", "setting": "C. briggsae mitochondria, 0.0025 µM, single replicate, read-out: in vitro complex I activity relative to solvent control", "value": 106, "unit": "%"}, {"measurement": "remaining activity at 0.005 µM", "setting": "C. briggsae mitochondria, 0.005 µM, Mean, read-out: in vitro complex I activity relative to solvent control", "value": 99.2, "unit": "%"}, {"measurement": "in vitro complex I activity relative to solvent control", "setting": "C. briggsae mitochondria, 0.005 µM, single replicate", "value": "95.872% and 91.749%"}, {"measurement": "remaining activity at 0.005 µM", "setting": "C. briggsae mitochondria, 0.005 µM, single replicate, read-out: in vitro complex I activity relative to solvent control", "value": 110, "unit": "%"}, {"measurement": "remaining activity at 0.013 µM", "setting": "C. briggsae mitochondria, 0.013 µM, Mean, read-out: in vitro complex I activity relative to solvent control", "value": 91, "unit": "%"}, {"measurement": "in vitro complex I activity relative to solvent control", "setting": "C. briggsae mitochondria, 0.013 µM, single replicate", "value": "83.705% and 87.377%"}, {"measurement": "remaining activity at 0.013 µM", "setting": "C. briggsae mitochondria, 0.013 µM, single replicate, read-out: in vitro complex I activity relative to solvent control", "value": 102, "unit": "%"}, {"measurement": "remaining activity at 0.025 µM", "setting": "C. briggsae mitochondria, 0.025 µM, Mean, read-out: in vitro complex I activity relative to solvent control", "value": 82.5, "unit": "%"}, {"measurement": "in vitro complex I activity relative to solvent control", "setting": "C. briggsae mitochondria, 0.025 µM, single replicate", "value": "95.007% and 79.112% and 73.336%"}, {"measurement": "remaining activity at 0.063 µM", "setting": "C. briggsae mitochondria, 0.063 µM, Mean, read-out: in vitro complex I activity relative to solvent control", "value": 54.5, "unit": "%"}, {"measurement": "in vitro complex I activity relative to solvent control", "setting": "C. briggsae mitochondria, 0.063 µM, single replicate", "value": "60.174% and 66.771% and 36.409%"}, {"measurement": "remaining activity at 0.125 µM", "setting": "C. briggsae mitochondria, 0.125 µM, Mean, read-out: in vitro complex I activity relative to solvent control", "value": 33.3, "unit": "%"}, {"measurement": "in vitro complex I activity relative to solvent control", "setting": "C. briggsae mitochondria, 0.125 µM, single replicate", "value": "36.143% and 47.895% and 15.798%"}, {"measurement": "remaining activity at 0.313 µM", "setting": "C. briggsae mitochondria, 0.313 µM, Mean, read-out: in vitro complex I activity relative to solvent control", "value": 12.2, "unit": "%"}, {"measurement": "in vitro complex I activity relative to solvent control", "setting": "C. briggsae mitochondria, 0.313 µM, single replicate", "value": "16.180% and 20.382% and 0.000%"}, {"measurement": "remaining activity at 0.625 µM", "setting": "C. briggsae mitochondria, 0.625 µM, Mean, read-out: in vitro complex I activity relative to solvent control", "value": 5.29, "unit": "%"}, {"measurement": "in vitro complex I activity relative to solvent control", "setting": "C. briggsae mitochondria, 0.625 µM, single replicate", "value": "0.000% and 15.885%"}, {"measurement": "remaining activity at 1.5 µM", "setting": "C. briggsae mitochondria, 1.5 µM, Mean, read-out: in vitro complex I activity relative to solvent control", "value": 3.62, "unit": "%"}, {"measurement": "in vitro complex I activity relative to solvent control", "setting": "C. briggsae mitochondria, 1.5 µM, single replicate", "value": "0.000% and 10.874%"}, {"measurement": "remaining activity at 3 µM", "setting": "C. briggsae mitochondria, 3 µM, Mean, read-out: in vitro complex I activity relative to solvent control", "value": 5.17, "unit": "%"}, {"measurement": "in vitro complex I activity relative to solvent control", "setting": "C. briggsae mitochondria, 3 µM, single replicate", "value": "0.000% and 15.522%"}, {"measurement": "remaining activity at 15 µM", "setting": "C. briggsae mitochondria, 15 µM, Mean, read-out: in vitro complex I activity relative to solvent control", "value": 7.49, "unit": "%"}, {"measurement": "in vitro complex I activity relative to solvent control", "setting": "C. briggsae mitochondria, 15 µM, single replicate", "value": "0.019% and 20.437% and 1.999%"}, {"measurement": "remaining activity at 37.5 µM", "setting": "C. briggsae mitochondria, 37.5 µM, Mean, read-out: in vitro complex I activity relative to solvent control", "value": 5.41, "unit": "%"}, {"measurement": "in vitro complex I activity relative to solvent control", "setting": "C. briggsae mitochondria, 37.5 µM, single replicate", "value": "0.000% and 16.226%"}, {"measurement": "remaining activity at 75 µM", "setting": "C. briggsae mitochondria, 75 µM, Mean, read-out: in vitro complex I activity relative to solvent control", "value": 4.07, "unit": "%"}, {"measurement": "in vitro complex I activity relative to solvent control", "setting": "C. briggsae mitochondria, 75 µM, single replicate", "value": "3.330% and 6.641% and 2.225%"}, {"measurement": "IC50", "setting": "purified mitochondria", "value": 73.7, "unit": "nM"}]}]}
